Here are results for twelve molecules from patent US20030100757A1, “2-(4-aryl or heteroaryl-piperazin-1-ylmethyl)-1H-indole derivatives interacting with the dopamine D4 receptor” (Pfizer Inc., priority 2001, published 2003).

For the molecule `Oc1ccc2[nH]c(CN3CCN(c4cccc(C(F)(F)F)c4)CC3)cc2c1` [Example 4, 2-[4-(3-Trifluoromethyl-phenyl)-piperazin-1-ylmethyl]-1H-indol-5-ol], the melting point (as a rule, the temperature of the solid-liquid transition) was in the range of 188 to 190 °C.
As for `FC(F)(F)c1cccc(N2CCN(Cc3cc4ccccc4[nH]3)CC2)c1` [Example 5, 2-[4-(3-Trifluoromethyl-phenyl)-piperazin-1-ylmethyl]-1 H-indole], the melting point lay in the range of 192 to 194 °C.
On to `O=C(c1cc2cc(F)ccc2[nH]1)N1CCN(c2ccccc2[N+](=O)[O-])CC1` [Example 7, (5-Fluoro-1H-indol-2-yl)-[4-(2-nitro-phenyl)-piperazin-1-yl]-methanone], for which the melting point lay in the range of 184 to 188 °C.
With `O=C(c1cc2cc(F)ccc2[nH]1)N1CCN(c2cccc(C(F)(F)F)c2)CC1` [Example 8, (5-Fluoro-1H-indol-2-yl)-[4-(3-trifluoromethyl-phenyl)-piperazin-1-yl]-methanone] the figure was 198 °C; with `c1ccc2[nH]c(CN3CCN(c4nsc5ccccc45)CC3)cc2c1` [Example 9, 3-[4-(1H-Indol-2-ylmethyl)-piperazin-1-yl]-benzo[d]isothiazole], 150 to 152 °C.
Regarding `Fc1ccc2[nH]c(CN3CCN(c4cccc(C(F)(F)F)c4)CC3)cc2c1` [Example 10, 5-Fluoro-2-[4-(3-trifluoromethyl-phenyl)-piperazin-1-ylmethyl]-1H-indole], the melting point lay in the range of 196 to 197 °C.
In turn, `c1ccc2[nH]c(CN3CCN(c4cccc5ccccc45)CC3)cc2c1` [Example 11, 2-(4-Naphthalen-1-yl-piperazin-1-ylmethyl)-1H-indole] showed a melting point of 238 to 239 °C.
`O=[N+]([O-])c1ccccc1N1CCN(Cc2cc3ccccc3[nH]2)CC1` [Example 12, 2-[4-(2-Nitro-phenyl)-piperazin-1-ylmethyl]-1H-indole] yielded a melting point of 210 to 211 °C.
For `O=[N+]([O-])c1ccccc1N1CCN(Cc2cc3cc(F)ccc3[nH]2)CC1` [Example 13, 5-Fluoro-2-[4-(2-nitro-phenyl)-piperazin-1-ylmethyl]-1H-indole], the melting point turned out to be 236 °C.
For the molecule `Fc1ccc2[nH]c(CN3CCN(c4cccc5ccccc45)CC3)cc2c1` [Example 14, 5-Fluoro-2-(4-naphthalen-1-yl-piperazin-1-ylmethyl)-1H-indole], the melting point lay within 249 to 250 °C.
On to `Fc1ccc2[nH]c(CN3CCN(c4ncccn4)CC3)cc2c1` [Example 17, 5-Fluoro-2-(4-pyrimidin-2-yl-piperazin-1-ylmethyl)-1H-indole], for which the melting point is 199 °C.
In turn, `O=C(c1cc2cc(F)ccc2[nH]1)N1CCN(c2ccccn2)CC1` [Example 18, (5-Fluoro-1H-indol-2-yl)-(4-pyridin-2-yl-piperazin-1-yl)-methanone] showed a melting point of 214 to 218 °C.
